# Laboratory results from patent US20100015635A1, “IMMOBILISATION OF FLUORESCENT PROTEINS” (priority 2006, published 2010).
# Columns and labels:
# [1] = Control: emission of mixture of BSA-Atto390 and Hc-Cy5 during deoxygenation, excitation 280 nm; settings: solution mixture
# From the text: To rule out that the changes in dye fluorescence might be due to a specific quenching by molecular oxygen, a mixture of Atto390 labelled bovine serum albumin (BSA) and Hc-Cy5 was deoxygenated while recording emission spectra from 300 to 750 nm upon excitation at 280 nm. The applied labels emit at different wavelengths, therefore permitting the simultaneous observation of each individual conjugate. […] With the labels exchanged, the reverse was observed. From this it can be concluded that the variations in label fluorescence correlate with the binding of O2 to the labelled hemocyanin. […] Similar observations were made for Ty.
# [2] = Sol-gel controls: O2 dependence of non-binding species, leaking, storage stability; format: physicochemical; settings: individually encapsulated in a sol-gel matrix
# From the text: [19]. The buffer solution surrounding the quartz slides was checked for leaking of the labeled protein out of the matrix. […] As already reported, the mechanical strength of silica gels often prevents the leaking of biomolecules. 3) Tryptophan fluorescence has been used to study stability and flexibility of proteins upon entrapment.
# [3] = Switching ratio of Trp/label emission of tyrosinase (Ty) on deoxygenation, excitation 280 nm; design: species or system Streptomyces antibioticus; settings: emission of Trp or of N-terminal dye label on Ty, excitation at 280 nm
# Protocol: To illustrate this Example, Ty from the soil bacterium Streptomyces antibiotius was selected.
# S.c. Ty contains 12 Trp residues on a total of 271 amino-acids (4.4% against ˜1% on average), which cluster around the type-3 centre. […] In an air-saturated solution (0.26 mM O2), practically all protein occurs in the oxygenated form (see FIG. 2A). Upon complete deoxygenation, the Trp fluorescence increases by a factor of 2.7 while the shape and position of the emission band remain unchanged. For the C.a. Hc samples, this factor, further referred to as the switching ratio SR (=Fred/Foxy), amounts to 2.2.
# Both Hc and Ty were labelled at their N-terminus with each of the five dyes. […] The peak around […] is a second-order artefact. In a solution containing dye and protein separately (not linked) this peak (280 nm) was missing. The second order artefact is due to higher orders of light being allowed through the monochromator. The artefact can be excluded by placing a cut-off filter in the detection path that allows through light only beyond a certain wavelength (for example […]).
# In all cases, an increase in label emission was observed after deoxygenating the sample (FIG. 4A). […] The Cy3 fluorescence is specific for the labelled protein, while the Trp emission derives mainly (>95%) from unlabelled Hc. […]
molecule,measurement,setting,value
"BSA-Atto390: Atto390 labelled bovine serum albumin, control",dependence of label emission on [O2],[1],does not
"bovine serum albumin labeled with Cy5: BSA labeled with Cy5 encapsulated in a sol-gel matrix, control",dependence of fluorescence intensity on [O2],[2],"neither unreacted Cy5 nor bovine serum albumin labeled with Cy5, both individually encapsulated in a sol-gel matrix, depended on the [O2]"
"Ty: tyrosinase from the soil bacterium Streptomyces antibiotius (protein, UniProt P07524 2-273, looked up) Tyrosinase: TVRKNQASLTAEEKRRFVAALLELKRTGRYDAFVTTHNAFILGDTDNGERTGHRSPSFLPWHRRFLLEFERALQSVDASVALPYWDWSADRSTRSSLWAPDFLGGTGRSRDGQVMDGPFAASAGNWPINVRVDGRTFLRRALGAGVSELPTRAEVDSVLAMATYDMAPWNSGSDGFRNHLEGWRGVNLHNRVHVWVGGQMATGVSPNDPVFWLHHAYIDKLWAEWQRRHPSSPYLPGGGTPNVVDLNETMKPWNDTTPAALLDHTRHYTFDV",SR Tyr (switching ratio Fred/Foxy),[3],2.7
